For assay [1], the target named is Beta-lactamase VIM-2 (Pseudomonas aeruginosa) (UniProt Q9K2N0). The experiment in a line: Inhibition of beta-lactamase VIM-2 in Pseudomonas aeruginosa assessed as potentiation of meropenem-induced antibacterial activity by measuring meropenem MIC at 31 uM after 20 hrs by broth microdilution assay (meropenem alone = 32 to 64 mg/L). Background: Dilution methods test growth across graded concentrations, often in twofold steps.

Assay [2] is described as follows: Binding affinity to zinc assessed as dissociation constant for compound-metal complex.
Assay [3] is described as follows: Cytotoxicity against human MiaPaCa cells after 72 hrs by MTT assay. Format: cell-based. Particulars: MIA PaCa-2, 72 h. In general terms: Tetrazolium dyes change colour on reduction, which living cells bring about.
In a further assay the test system is COLO357. The experiment in a line: Cytotoxicity against human Colo-357 cells after 72 hrs by MTT assay. The format is cell-based. Particulars: COLO357, 72 h.
In assay [4] the target is Metallo-beta-lactamase type 2 (Klebsiella pneumoniae) (UniProt C7C422). Description: Inhibition of NDM1 in Pseudomonas aeruginosa assessed as potentiation of meropenem-induced antibacterial activity by measuring meropenem MIC at 50 uM after 20 hrs by broth microdilution assay (meropenem alone = 32 to 64 mg/L).
The target of assay [5] is Beta-lactamase VIM-2 (Pseudomonas aeruginosa) (UniProt Q9K2N0). Description: Inhibition of beta-lactamase VIM-2 in Pseudomonas aeruginosa assessed as potentiation of meropenem-induced antibacterial activity by measuring meropenem MIC at 16 uM after 20 hrs by broth microdilution assay (meropenem alone = 32 to 64 mg/L).
For assay [6] the target is unchanged. Description: Inhibition of beta-lactamase VIM-2 in Pseudomonas aeruginosa assessed as potentiation of meropenem-induced antibacterial activity by measuring meropenem MIC at 50 uM after 20 hrs by broth microdilution assay (meropenem alone = 32 to 64 mg/L).
A further assay concerns HepG2. Description: Cytotoxicity against human HepG2 cells after 72 hrs by MTT assay. The format is cell-based. Particulars: HepG2, 72 h.
Assay [7] concerns the target Metallo-beta-lactamase type 2 (Klebsiella pneumoniae) (UniProt C7C422). Description: Inhibition of NDM1 in Pseudomonas aeruginosa assessed as potentiation of meropenem-induced antibacterial activity by measuring meropenem MIC at 31 uM after 20 hrs by broth microdilution assay (meropenem alone = 32 to 64 mg/L).
For assay [8] the target is unchanged. Description: Inhibition of NDM1 in Pseudomonas aeruginosa assessed as potentiation of meropenem-induced antibacterial activity by measuring meropenem MIC at 16 uM after 20 hrs by broth microdilution assay (meropenem alone = 32 to 64 mg/L).
The test system of another assay is MDA-MB-231. The experiment in a line: Cytotoxicity against human MDA-MB-231 cells after 72 hrs by MTT assay. Format: cell-based. The note with it: MDA-MB-231, 72 h.
Assay [9] deals with Metallo-beta-lactamase type 2 (Klebsiella pneumoniae) (UniProt C7C422). The experiment in a line: Inhibition of NDM1 in Pseudomonas aeruginosa assessed as potentiation of meropenem-induced antibacterial activity by measuring meropenem MIC at 125 uM after 20 hrs by broth microdilution assay (meropenem alone = 32 to 64 mg/L).
The target in assay [10] is Beta-lactamase VIM-2 (Pseudomonas aeruginosa) (UniProt Q9K2N0). Description: Inhibition of beta-lactamase VIM-2 in Pseudomonas aeruginosa assessed as potentiation of meropenem-induced antibacterial activity by measuring meropenem MIC at 125 uM after 20 hrs by broth microdilution assay (meropenem alone = 32 to 64 mg/L).

The structures appear in SMILES notation.

Metallo-beta-lactamase type 2 (Klebsiella pneumoniae), sequence (C7C422 whole entry): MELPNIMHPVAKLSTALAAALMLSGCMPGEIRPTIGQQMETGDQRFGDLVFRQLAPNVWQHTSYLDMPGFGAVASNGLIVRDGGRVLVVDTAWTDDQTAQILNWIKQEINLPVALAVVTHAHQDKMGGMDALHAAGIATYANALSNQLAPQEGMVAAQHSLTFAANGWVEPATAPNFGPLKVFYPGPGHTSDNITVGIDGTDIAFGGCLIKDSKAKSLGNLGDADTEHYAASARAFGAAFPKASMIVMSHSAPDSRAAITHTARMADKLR

For `COC(=O)[C@@H](C)NC(=O)[C@@H](C)NC(=O)CN(C)CCN(Cc1ccccn1)Cc1ccccn1`, the MIC in assay [1] is 1 to 2 µg/mL; in assay [4] it was 0.125 µg/mL; in assay [5], 32 µg/mL; in assay [6] it was 1 µg/mL; in [7] it was 0.125 µg/mL; in assay [8] it was 16 µg/mL. In addition, in assay [2], the pKd – broadly, the negative decadic logarithm of the Kd, by convention in mol/L – is on record as 11.8. Besides, the IC50 (in general, the concentration that gives 50% inhibition) in assay [3] was 5.1 µM; in the assay with COLO357, 4.3 µM; with HepG2, 6.83 µM; with MDA-MB-231, 4.5 µM.

In the case of `C[C@@H](N)C(=O)N[C@H](C)C(=O)NCCc1ccc(NC(=O)CN(CCN(Cc2ccccn2)Cc2ccccn2)Cc2ccccn2)cc1.Cl`, the MIC in [1] was found to be 2 µg/mL; in assay [9], 0.125 µg/mL; in [5], 32 µg/mL; in assay [10], 2 µg/mL; in assay [7] it was 0.125 µg/mL; in [8], 8 µg/mL. Also, the pKd in assay [2] was 12.3. The IC50 in assay [3] was found to be 4.8 µM; with COLO357 it was 6.8 µM; with HepG2, 13.6 µM; in the assay on MDA-MB-231, 4.9 µM.

These data come from ChEMBL document CHEMBL4480377, “Synthesis and biological evaluation of zinc chelating compounds as metallo-β-lactamase inhibitors” (Medchemcomm, 2019).
